Measured values reported in US12157730B2, “Heteroaryl derivative, method for producing same, and pharmaceutical composition comprising same as effective component” (VORONOI INC., priority 2019, dated 2024).

Target: T1, Ba/F3 cell EGFR Exon20 ins NPH (Homo sapiens, UniProt P00533, INS773NPH)
T1 construct: expressed in transfected cells; host or cells: Ba/F3
Test: Ba/F3 cell proliferation suppression, EGFR Exon20 ins NPH
Assay type: cell-based
Details: GI50 class; Ba/F3 cell line with NPH inserted at Exon20 of EGFR; 72 hours
Method in brief: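 After 72 h compound exposure (twelve 3-fold steps, 0.3 nM–50 um final), live cells were measured by CellTiter-Glo luminescence and growth expressed as % of control to derive GI50. Cells were seeded at 3000–5000 per well a day earlier; Ba/F3 medium contained IL-3; three repeats.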

| Ba/F3 (NPH) Activity | SMILES |
| --- | --- |
| A (GI50 < 50 nM) | C=CC(=O)Nc1cc(Nc2cc(N3OCC[C@@H]3Cc3cccc(F)c3C)ncn2)c(OC)cc1N1CCN(C2CC2)CC1 [compound 1038, N-(2-(4-cyclopropylpiperazine-1-yl)-5-((6-((S)-3-(3-fluoro-2-methylbenzyl)isoxazolidine-2-yl)pyrimidine-4-yl)amino)-4-methoxyphenyl) acrylamide] |
| A (GI50 < 50 nM) | C=CC(=O)Nc1cc(Nc2cc(N3OCC[C@@H]3c3cccc(C)c3F)ncn2)c(OC)cc1N1CCC(N2CC[C@@H](N(C)C)C2)CC1 [compound 418, N-(2-(4-((R)-3-(dimethylamino)pyrolidine-1-yl)piperidine-1-yl)-5-((6-((R)-3-(2-fluoro-3-methylphenyl)isoxazolidine-2-yl)pyrimidine-4-yl)amino)-4-methoxyphenyl) acrylamide] |
| A (GI50 < 50 nM) | C=CC(=O)Nc1cc(Nc2cc(N3OCC[C@@H]3c3ccc(Cl)cc3F)ncn2)c(OC)cc1N1CCC(N2CCN(C(C)=O)CC2)CC1 [compound 375, N-(2-(4-(4-acetylpiperazine-1-yl)piperidine-1-yl)-5-((6-((R)-3-(4-chloro-2-fluorophenyl)isoxazolidine-2-yl)pyrimidine-4-yl)amino)-4-methoxyphenyl) acrylamide] |
| A (GI50 < 50 nM) | C=CC(=O)Nc1cc(Nc2cc(N3OCC[C@@H]3Cc3cccc(F)c3)ncn2)c(OC)cc1N1CCC(N2CCN(C3CC3)[C@H](C)C2)CC1 [compound 994, N-(2-(4-((R)-4-cyclopropyl-3-methylpiperazine-1-yl)piperidine-1-yl)-5-((6-((S)-3-(3-fluorobenzyl)isoxazolidine-2-yl)pyrimidine-4-yl)amino)-4-methoxyphenyl) acrylamide] |
| A (GI50 < 50 nM) | C=CC(=O)Nc1cc(Nc2cc(N3OCC[C@@H]3c3ccc(F)cc3F)ncn2)c(OC)cc1N1CCC(N2C[C@H]3C[C@@H]2CN3CC)CC1 [compound 425, N-(5-((6-((R)-3-(2,4-difluorophenyl)isoxazolidine-2-yl)pyrimidine-4-yl)amino)-2-(4-((1R,4R)-5-ethyl-2,5-diazabicyclo [2.2.1]heptane-2-yl)piperidine-1-yl)-4-methoxyphenyl) acrylamide] |
| B (50 nM ≤ GI50 < 500 nM) | C=CC(=O)Nc1cc(Nc2cc(N3OCC[C@@H]3c3ccc4ccccc4c3)ncn2)c(OC)cc1N1CCN(C)[C@@H](C)C1 [compound 662, N-(2-((S)-3,4-dimethylpiperazine-1-yl)-4-methoxy-5-((6-((R)-3-(naphthalene-2-yl)isoxazolidine-2-yl)pyrimidine-4-yl)amino)phenyl)acrylamide] |
| A (GI50 < 50 nM) | C=CC(=O)Nc1cc(Nc2cc(N3OCC[C@@H]3c3ccc(Cl)cc3F)ncn2)c(OC)cc1N1CCC(N(C(=O)C=C)C2CCN(C(C)C)CC2)CC1 [compound 402, N-(1-(2-acrylamido-4-((6-((R)-3-(4-chloro-2-fluorophenyl)isoxazolidine-2-yl)pyrimidine-4-yl)amino)-5-methoxyphenyl)piperidine-4-yl)-N-(1-isopropylpiperidine-4-yl)acrylamide] |
| A (GI50 < 50 nM) | C=CC(=O)Nc1cc(Nc2cc(N3OCC[C@@H]3c3cccc(C)c3F)ncn2)c(OC)cc1N1CCC(N2C[C@@H](C)N(C3CC3)C[C@H]2C)CC1 [Example 124, N-(2-(4-((2R,5R)-4-cyclopropyl-2,5-dimethylpiperazine-1-yl)piperidine-1-yl)-5-((6-((R)-3-(2-fluoro-3-methylphenyl)isoxazolidine-2-yl)pyrimidine-4-yl)amino)-4-methoxyphenyl) acrylamide] |
| A (GI50 < 50 nM) | C=CC(=O)Nc1cc(Nc2cc(N3OCC[C@@H]3c3cccc(Cl)c3Cl)ncn2)c(OC)cc1N(C)CCN(C)C [compound 516, N-(5-((6-((R)-3-(2,3-dichlorophenyl)isoxazolidine-2-yl)pyrimidine-4-yl)amino)-2-((2-(dimethylamino)ethyl)(methyl)amino)-4-methoxyphenyl) acrylamide] |
| A (GI50 < 50 nM) | C=CC(=O)Nc1cc(Nc2cc(N3OCC[C@@H]3c3cc(F)cc(F)c3)ncn2)c(OC)cc1N1CCC(N2CCCN(C3CC3)CC2)CC1 [compound 717, N-(2-(4-(4-cyclopropyl-1,4-diazepane-1-yl)piperidine-1-yl)-5-((6-((R)-3-(3,5-difluorophenyl)isoxazolidine-2-yl)pyrimidine-4-yl)amino)-4-methoxyphenyl) acrylamide] |
| A (GI50 < 50 nM) | C=CC(=O)Nc1cc(Nc2cc(N3OCC[C@@H]3c3cccc4ccccc34)ncn2)c(OC)cc1N1CCC(N2CCN(C3CC3)[C@@H](C)C2)CC1 [Example 156, N-(2-(4-((S)-4-cyclopropyl-3-methylpiperazine-1-yl)piperidine-1-yl)-4-methoxy-5-((6-((R)-3-(naphthalene-1-yl)isoxazolidine-2-yl)pyrimidine-4-yl)amino)phenyl)acrylamide] |
| A (GI50 < 50 nM) | C=CC(=O)Nc1cc(Nc2cc(N3OCC[C@@H]3c3cccc(Cl)c3)ncn2)c(OC)cc1N1CCC(N2C[C@@H]3C[C@H]2CO3)CC1 [compound 462, N-(2-(4-((1S,4S)-2-oxa-5-azabicyclo [2.2.1]heptane-5-yl)piperidine-1-yl)-5-((6-((R)-3-(3-chlorophenyl)isoxazolidine-2-yl)pyrimidine-4-yl)amino)-4-methoxyphenyl) acrylamide] |
| A (GI50 < 50 nM) | C=CC(=O)Nc1cc(Nc2cc(N3OCC[C@@H]3Cc3ccccc3)ncn2)c(OC)cc1N1CCN(C)CC1 [compound 945, N-(5-((6-((S)-3-benzylisoxazolidine-2-yl)pyrimidine-4-yl)amino)-4-methoxy-2-(4-methylpiperazine-1-yl)phenyl)acrylamide] |
| A (GI50 < 50 nM) | C=CC(=O)Nc1cc(Nc2cc(N3OCC[C@@H]3c3cccc(Cl)c3Cl)ncn2)c(OC)cc1N1C[C@H]2C[C@@H]1CN2CC [compound 525, N-(5-((6-((R)-3-(2,3-dichlorophenyl)isoxazolidine-2-yl)pyrimidine-4-yl)amino)-2-((1R,4R)-5-ethyl-2,5-diazabicyclo[2.2.1]heptane-2-yl)-4-methoxyphenyl) acrylamide] |
| A (GI50 < 50 nM) | C=CC(=O)Nc1cc(Nc2cc(N3OCC[C@@H]3c3cccc(C#N)c3)ncn2)c(OC)cc1N1CCC(N2CCN(C3CC3)C[C@H]2C)CC1 [Example 131, N-(5-((6-((R)-3-(3-cyanophenyl)isoxazolidine-2-yl)pyrimidine-4-yl)amino)-2-(4-((R)-4-cyclopropyl-2-methylpiperazine-1-yl)piperidine-1-yl)-4-methoxyphenyl) acrylamide] |
| A (GI50 < 50 nM) | C=CC(=O)Nc1cc(Nc2cc(N3OCC[C@@H]3c3cccc(Cl)c3Cl)ncn2)c(OC)cc1N1CCC(N2CCN(CC)CC2)CC1 [compound 569, N-(5-((6-((R)-3-(2,3-dichlorophenyl)isoxazolidine-2-yl)pyrimidine-4-yl)amino)-2-(4-(4-ethylpiperazine-1-yl)piperidine-1-yl)-4-methoxyphenyl) acrylamide] |
| A (GI50 < 50 nM) | C=CC(=O)Nc1cc(Nc2cc(N3OCC[C@@H]3c3cccc(Cl)c3Cl)ncn2)c(OC)cc1N1CCC(N(C)C)CC1 [compound 476, N-(5-((6-((R)-3-(2,3-dichlorophenyl)isoxazolidine-2-yl)pyrimidine-4-yl)amino)-2-(4-(dimethylamino)piperidine-1-yl)-4-methoxyphenyl) acrylamide] |
| B (50 nM ≤ GI50 < 500 nM) | C=CC(=O)Nc1cc(Nc2cc(N3OCC[C@@H]3c3ccc(F)c(Cl)c3F)ncn2)c(OC)cc1N1CCN(C)[C@@H](C)C1 [compound 665, N-(5-((6-((R)-3-(3-chloro-2,4-difluorophenyl)isoxazolidine-2-yl)pyrimidine-4-yl)amino)-2-((S)-3,4-dimethylpiperazine-1-yl)-4-methoxyphenyl) acrylamide] |
| B (50 nM ≤ GI50 < 500 nM) | C=CC(=O)Nc1cc(Nc2cc(N3OCC[C@@H]3c3ccc(Cl)c(Cl)c3)ncn2)c(OC)cc1N1CCN(CCN(C)C)CC1 [compound 686, N-(5-((6-((R)-3-(3,4-dichlorophenyl)isoxazolidine-2-yl)pyrimidine-4-yl)amino)-2-(4-(2-(dimethylamino)ethyl)piperazine-1-yl)-4-methoxyphenyl) acrylamide] |
| A (GI50 < 50 nM) | C=CC(=O)Nc1cc(Nc2cc(N3OCC[C@@H]3c3c(F)ccc(F)c3Cl)ncn2)c(OC)cc1N1CCC(N2CCN(C3CC3)[C@@H](C)C2)CC1 [compound 934, N-(5-((6-((R)-3-(2-chloro-3,6-difluorophenyl)isoxazolidine-2-yl)pyrimidine-4-yl)amino)-2-(4-((S)-4-cyclopropyl-3-methylpiperazine-1-yl)piperidine-1-yl)-4-methoxyphenyl) acrylamide] |
| A (GI50 < 50 nM) | C=CC(=O)Nc1cc(Nc2cc(N3OCC[C@@H]3c3cccc(Cl)c3F)ncn2)c(OC)cc1N1CCC(N2C[C@H](C)N(C3CC3)C[C@@H]2C)CC1 [Example 128, N-(5-((6-((R)-3-(3-chloro-2-fluorophenyl)isoxazolidine-2-yl)pyrimidine-4-yl)amino)-2-(4-((2S,5S)-4-cyclopropyl-2,5-dimethylpiperazine-1-yl)piperidine-1-yl)-4-methoxyphenyl) acrylamide] |
| A (GI50 < 50 nM) | C=CC(=O)Nc1cc(Nc2cc(N3OCC[C@@H]3Cc3cccc(Cl)c3F)ncn2)c(OC)cc1N1CCC(N2CCN(C3CC3)[C@@H](C)C2)CC1 [compound 1018, N-(5-((6-((S)-3-(3-chloro-2-fluorobenzyl)isoxazolidine-2-yl)pyrimidine-4-yl)amino)-2-(4-((S)-4-cyclopropyl-3-methylpiperazine-1-yl)piperidine-1-yl)-4-methoxyphenyl) acrylamide] |
